Data taken from patent publication US20160333043A1, “E-Selectin Antagonists Modified By Macrocycle Formation to the Galactose” (GLYCOMIMETICS, INC., priority 2014, published 2016).
Read-outs that look alike come from different tables or passages of the source.

Assays:
E-selectin = biological target: T1, E-selectin (Homo sapiens, UniProt P16581); assay: E-selectin activity competitive binding assay (sLe^a polyacrylamide / streptavidin-HRP conjugate); conditions: immobilized E-selectin/Ig chimera; concentration required to inhibit sLe^a binding by 50%; absorbance 450 nm
T1 construct: fused on or other part: Immunoglobulin (Ig) part fused on as a handle for immobilising and dimerising
T1 sequence (P16581 22-175 limits assumed): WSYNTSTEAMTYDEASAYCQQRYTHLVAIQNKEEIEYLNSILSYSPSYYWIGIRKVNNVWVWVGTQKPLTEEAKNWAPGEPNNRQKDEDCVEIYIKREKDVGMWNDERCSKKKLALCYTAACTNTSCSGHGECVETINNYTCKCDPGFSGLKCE
From the text: An inhibition assay may be used to screen for antagonists of E-selectin. For example, an assay may be performed to characterize the capability of a compound described herein to inhibit (i.e., reduce, block, decrease, or prevent in a statistically or biologically significant manner) interaction of E-selectin with sLe^a or sLe^x. The inhibition assay may be a competitive binding assay, which allows the determination of IC50 values. By way of example, E-selectin/Ig chimera may be immobilized onto a matrix (e.g., a multi-well plate, which may be made from a polymer, such as polystyrene; a test tube, and the like); a composition may be added to reduce nonspecific binding (e.g., a composition comprising non-fat dried milk or bovine serum albumin or other blocking buffer routinely used by a person skilled in the art); the immobilized E-selectin may be contacted with the candidate compound in the presence of sLe^a comprising a reporter group under conditions and for a time sufficient to permit sLe^a to bind to the immobilized E-selectin; the immobilized E-selectin may be washed; and the amount of sLe^a bound to immobilized E-selectin may be detected. Variations of such steps can be readily and routinely accomplished by a person of ordinary skill in the art.
The inhibition assay to screen and characterize glycomimetic antagonists of E-selectin is a competitive binding assay, from which IC50 values may be determined. E-selectin/Ig chimera was immobilized in 96 well microtiter plates by incubation at 37° C. for 2 hours. To reduce nonspecific binding, bovine serum albumin was added to each well and incubated at room temperature for 2 hours. The plate was washed and serial dilutions of the test compounds were added to the wells in the presence of conjugates of biotinylated, sLe^a polyacrylamide with streptavidin/horseradish peroxidase and incubated for 2 hours at room temperature.
To determine the amount of sLe^a bound to immobilized E-selectin after washing, the peroxidase substrate, 3,3′,5,5′ tetramethylbenzidine (TMB) was added. After 3 minutes, the enzyme reaction was stopped by the addition of H3PO4, and the absorbance of light at a wavelength of 450 nm was determined.

[1] = rcm bond, Grubbs 2nd generation catalyst, 25.0 °C

| SMILES | IC50 (E-selectin) [µM] | other results |
| --- | --- | --- |
| COC(=O)C1CC=CCCO[C@H]2[C@H](O[C@@H]3CCC[C@H](C)[C@H]3O[C@@H]3O[C@@H](C)[C@@H](OCc4ccccc4)[C@@H](OCc4ccccc4)[C@@H]3OCc3ccccc3)O[C@H](COCc3ccccc3)[C@H](O)[C@@H]2O1 (stereo partly shown) |  | ring closure, yield of all isomers ([1]; from C=CCCO[C@H]1[C@H](O[C@@H]2CCC[C@H](C)[C@H]2O[C@@H]2O[C@@H](C)[C@@H](OCc3ccccc3)[C@@H](OCc3ccccc3)[C@@H]2OCc2ccccc2)O[C@H](COCc2ccccc2)[C@H](O)[C@@H]1OC(CC=C)C(=O)OC, DCM, 2.0 h): 82.5% |
| CC1O[C@@H](OC2[C@H](C)CCC[C@H]2O[C@@H]2OC(CO)[C@H](O)C3O[C@@H](C(=O)O)CCCCOC32)[C@@H](O)C(O)[C@@H]1O (stereo partly shown) [Compound 18a] | 15.2 |  |
| CC[C@H]1CCC[C@@H](O[C@@H]2O[C@@H]3COC(c4ccccc4)O[C@@H]3[C@@H]3O[C@@H](C(=O)OCc4ccccc4)CC=CCO[C@@H]23)[C@@H]1O[C@@H]1O[C@@H](C)[C@@H](OCc2ccccc2)[C@@H](OCc2ccccc2)[C@@H]1OCc1ccccc1 (stereo partly shown) |  | ring closure, yield of all isomers ([1]; from C=CCO[C@H]1[C@H](O[C@@H]2CCC[C@H](CC)[C@H]2O[C@@H]2O[C@@H](C)[C@@H](OCc3ccccc3)[C@@H](OCc3ccccc3)[C@@H]2OCc2ccccc2)O[C@@H]2COC(c3ccccc3)O[C@@H]2[C@@H]1O[C@H](CC=C)C(=O)OCc1ccccc1, 16.0 h): 66% |
| COC(=O)C1CC=CCO[C@H]2[C@H](O[C@@H]3CCC[C@H](C)[C@H]3O[C@@H]3O[C@@H](C)[C@@H](OCc4ccccc4)[C@@H](OCc4ccccc4)[C@@H]3OCc3ccccc3)O[C@H](COCc3ccccc3)[C@H](O)[C@@H]2O1 (stereo partly shown) |  | ring closure, yield of all isomers ([1]; from C=CCO[C@H]1[C@H](O[C@@H]2CCC[C@H](C)[C@H]2O[C@@H]2O[C@@H](C)[C@@H](OCc3ccccc3)[C@@H](OCc3ccccc3)[C@@H]2OCc2ccccc2)O[C@H](COCc2ccccc2)[C@H](O)[C@@H]1OC(CC=C)C(=O)OC, DCM, 5.25 mM, 2.0 h): 86% |

Second part, led by results:

| IC50 (E-selectin) [µM] | SMILES | other results |
| --- | --- | --- |
| 15.8 | CC1O[C@@H](OC2[C@H](C)CCC[C@H]2O[C@@H]2OC(CO)[C@H](O)C3O[C@@H](C(=O)O)CCCOC32)[C@@H](O)C(O)[C@@H]1O (stereo partly shown) [Compound 25] |  |
| 7.3 | CC[C@@H]1CCC[C@@H](O[C@@H]2OC(CO)[C@H](O)C3O[C@@H](C(=O)O)CCCCOC32)C1O[C@@H]1OC(C)[C@@H](O)C(O)[C@@H]1O (stereo partly shown) [Compound 39] |  |
| 3.8 | CC[C@@H]1CCC[C@@H](O[C@@H]2OC(CO)[C@H](O)C3O[C@@H](C(=O)O)CCCOC32)C1O[C@@H]1OC(C)[C@@H](O)C(O)[C@@H]1O (stereo partly shown) [Compound 47] |  |
